Laboratory results reported in patent US10457709B2, “Antimicrobial peptides, their variants and uses” (priority 2015, dated 2019).
Where two headings read alike, the source gives them in different places. Square brackets hold non-standard residues; d marks the D form. Peptide text beside a SMILES is read from it.

Assays:
[1] = system: C. quillermondiae clinical strains; assay: MIC, clinical yeast strains; assay type: cell-based, Candida quillermondiae; set-up: unit: μg/ml; settings: C. quillermondiae clinical yeast strain 1
Method in brief: (§1)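 MIC recorded as the lowest peptide level, within 0.125–128 μg/ml, that left no visible growth after 20–24 h at 37° C. Inoculum was 5.0×10^5 cfu/ml of clinical isolates. Medium was potato dextrose broth for yeasts and Mueller Hinton broth for bacteria, in a broth microdilution format.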

[2] = system: C. glabrata clinical strains; assay: MIC, clinical yeast strains; assay type: cell-based, Candida glabrata; set-up: unit: µg/ml
Method in brief: as §1

[3] = system: Streptococcus pneumoniae clinical strains; assay type: cell-based; set-up: Minimum inhibitory concentration: unit: μg/ml; settings: microdilution, Muller Hinton broth-cation adjusted, 0.02% BSA, 0.2% acetic acid
Method in brief: as §1

[4] = system: Serratia marcescens clinical strains; assay type: cell-based; set-up: Minimum inhibitory concentration: unit: μg/ml; settings: for Minimum inhibitory concentration: microdilution, Muller Hinton broth-cation adjusted, 0.02% BSA, 0.2% acetic acid
Method in brief: as §1

[5] = system: Staphylococcus aureus clinical strains; assay type: cell-based; set-up: Minimum inhibitory concentration: unit: μg/ml; settings: microdilution, Muller Hinton broth-cation adjusted, 0.02% BSA, 0.2% acetic acid
Method in brief: as §1

[6] = system: Acinetobacter baumannii clinical strains; assay type: cell-based; set-up: Minimum inhibitory concentration: unit: μg/ml; settings: microdilution, Muller Hinton broth-cation adjusted, 0.02% BSA, 0.2% acetic acid
Method in brief: as §1

[7] = system: Enterobacter cloacae clinical strains; assay type: cell-based; set-up: Minimum inhibitory concentration: unit: μg/ml; settings: microdilution, Muller Hinton broth-cation adjusted, 0.02% BSA, 0.2% acetic acid
Method in brief: as §1

[8] = system: Proteus mirabilis clinical strains; assay type: cell-based; set-up: Minimum inhibitory concentration: unit: μg/ml; settings: for Minimum inhibitory concentration: microdilution, Muller Hinton broth-cation adjusted, 0.02% BSA, 0.2% acetic acid
Method in brief: as §1

[9] = system: Candida albicans clinical strains; assay: MIC, clinical yeast strains; assay type: cell-based; set-up: unit: μg/ml
Method in brief: as §1

[10] = system: Escherichia coli clinical strains; assay type: cell-based; settings: microdilution, Muller Hinton broth-cation adjusted, 0.02% BSA, 0.2% acetic acid
Method in brief: as §1

[11] = system: Pseudomonas aeruginosa clinical strains; assay type: cell-based; settings: microdilution, Muller Hinton broth-cation adjusted, 0.02% BSA, 0.2% acetic acid
Method in brief: as §1

[12] = system: Klebsiella pneumoniae clinical strains; assay type: cell-based; settings: microdilution, Muller Hinton broth-cation adjusted, 0.02% BSA, 0.2% acetic acid
Method in brief: as §1

[13] = system: all the bacteria and yeasts tested; assay type: cell-based
Method in brief: as §1

[14] = system: C. parapsilosis clinical strains; assay: MIC, clinical yeast strains; assay type: cell-based, Candida parapsilosis; set-up: unit: µg/ml
Method in brief: as §1

`CC[C@@H](C)[C@@H](NC(=O)[C@@H](Cc1c[nH]c2ccccc12)NC(=O)[C@H](N)CCCCN)C(=O)N[C@@H](C(=O)N[C@H](Cc1c[nH]c2ccccc12)C(=O)N[C@H](CCCNC(=N)N)C(=O)N[C@H](Cc1c[nH]c2ccccc12)C(=O)N[C@H](CCCNC(=N)N)C(=O)N[C@H](Cc1ccccc1)C(=O)N[C@H](CCCCN)C(=O)N[C@H](CCCNC(=N)N)C(=O)O)C(C)C` [Chain201D] (H-[dK][dW][dI][dV][dW][dR][dW][dR][dF][dK][dR]-OH) was tested, and the Minimum inhibitory concentration [1] was 8, the Minimum inhibitory concentration ([2]; C. glabrata clinical yeast strain 1) was 8 and the Minimum inhibitory concentration ([2]; C. glabrata clinical yeast strain 2) was 8. For the same compound, the Minimum inhibitory concentration ([2]; C. glabrata clinical yeast strain 3) was 8, the Minimum inhibitory concentration ([2]; C. glabrata clinical yeast strain 4) was 64 and the Minimum inhibitory concentration ([3]; Streptococcus pneumoniae clinical strain 1) was 8. The Minimum inhibitory concentration ([3]; Streptococcus pneumoniae clinical strain 2) was 4, the Minimum inhibitory concentration ([3]; Streptococcus pneumoniae clinical strain 3) was 2 and the Minimum inhibitory concentration ([3]; Streptococcus pneumoniae clinical strain 4) was 4. It also gave a Minimum inhibitory concentration ([3]; Streptococcus pneumoniae clinical strain 5) of 4, a Minimum inhibitory concentration ([4]; Serratia marcescens clinical strain 1) of 64 and a Minimum inhibitory concentration ([4]; Serratia marcescens clinical strain 2) of 64. The Minimum inhibitory concentration ([4]; Serratia marcescens clinical strain 3) was 64, the Minimum inhibitory concentration ([4]; Serratia marcescens clinical strain 4) was 64 and the Minimum inhibitory concentration ([4]; Serratia marcescens clinical strain 5) was 128. For the same compound, the “MICs against Serratia marcescens” value ([4]; clinical strains) was 64 to 128 µg/mL, the Minimum inhibitory concentration ([5]; Staphylococcus aureus clinical strain 1) was 1 and the Minimum inhibitory concentration ([5]; Staphylococcus aureus clinical strain 2) was 1. The Minimum inhibitory concentration ([5]; Staphylococcus aureus clinical strain 3) was 1, the Minimum inhibitory concentration ([5]; Staphylococcus aureus clinical strain 4) was 1 and the Minimum inhibitory concentration ([5]; Staphylococcus aureus clinical strain 5) was 1. It also gave a Minimum inhibitory concentration ([6]; Acinetobacter baumannii clinical strain 1) of 4, a Minimum inhibitory concentration ([6]; Acinetobacter baumannii clinical strain 2) of 4 and a Minimum inhibitory concentration ([6]; Acinetobacter baumannii clinical strain 3) of 4. The Minimum inhibitory concentration ([6]; Acinetobacter baumannii clinical strain 4) was 4, the Minimum inhibitory concentration ([6]; Acinetobacter baumannii clinical strain 5) was 4 and the Minimum inhibitory concentration ([7]; Enterobacter cloacae clinical strain 1) was 1. For the same compound, the Minimum inhibitory concentration ([7]; Enterobacter cloacae clinical strain 2) was 2, the Minimum inhibitory concentration ([7]; Enterobacter cloacae clinical strain 3) was 2 and the Minimum inhibitory concentration ([7]; Enterobacter cloacae clinical strain 4) was 2. The Minimum inhibitory concentration ([7]; Enterobacter cloacae clinical strain 5) was 1, the Minimum inhibitory concentration ([8]; Proteus mirabilis clinical strain 1) was over 128 and the Minimum inhibitory concentration ([8]; Proteus mirabilis clinical strain 2) was 32. The Minimum inhibitory concentration ([8]; Proteus mirabilis clinical strain 3) was 64, the Minimum inhibitory concentration ([8]; Proteus mirabilis clinical strain 4) was over 128 and the Minimum inhibitory concentration ([8]; Proteus mirabilis clinical strain 5) was over 128. The “MICs against Proteus mirabilis” value ([8]; clinical strains) was 64 to 128 µg/mL, the Minimum inhibitory concentration ([9]; Candida albicans clinical yeast strain 1) was 16 and the Minimum inhibitory concentration ([9]; Candida albicans clinical yeast strain 2) was 8. For the same compound, the Minimum inhibitory concentration ([9]; Candida albicans clinical yeast strain 3) was 8, the Minimum inhibitory concentration ([9]; Candida albicans clinical yeast strain 4) was 16 and the Minimum inhibitory concentration ([9]; Candida albicans clinical yeast strain 5) was 8. For the same compound, the Minimum inhibitory concentration ([10]; Escherichia coli clinical strain 1) was 16, the Minimum inhibitory concentration ([10]; Escherichia coli clinical strain 2) was 1 and the Minimum inhibitory concentration ([10]; Escherichia coli clinical strain 3) was 1. It also gave a Minimum inhibitory concentration ([10]; Escherichia coli clinical strain 4) of 1, a Minimum inhibitory concentration ([10]; Escherichia coli clinical strain 5) of 1 and a Minimum inhibitory concentration ([11]; Pseudomonas aeruginosa clinical strain 1) of 4. For the same compound, the Minimum inhibitory concentration ([11]; Pseudomonas aeruginosa clinical strain 2) was 4, the Minimum inhibitory concentration ([11]; Pseudomonas aeruginosa clinical strain 3) was 4 and the Minimum inhibitory concentration ([11]; Pseudomonas aeruginosa clinical strain 4) was 2. For the same compound, the Minimum inhibitory concentration ([11]; Pseudomonas aeruginosa clinical strain 5) was 2, the Minimum inhibitory concentration ([12]; Klebsiella pneumoniae clinical strain 1) was 2 and the Minimum inhibitory concentration ([12]; Klebsiella pneumoniae clinical strain 2) was 2. It also gave a Minimum inhibitory concentration ([12]; Klebsiella pneumoniae clinical strain 3) of 4, a Minimum inhibitory concentration ([12]; Klebsiella pneumoniae clinical strain 4) of 4 and a Minimum inhibitory concentration ([12]; Klebsiella pneumoniae clinical strain 5) of 2. The “MICs against all the bacteria and yeasts tested” value [13] was 0.5 to 32 µg/mL, the Minimum inhibitory concentration ([14]; C. parapsilosis clinical yeast strain 1) was 8 and the Minimum inhibitory concentration ([14]; C. parapsilosis clinical yeast strain 2) was 8. It also gave a Minimum inhibitory concentration ([14]; C. parapsilosis clinical yeast strain 3) of 8 and a Minimum inhibitory concentration ([14]; C. parapsilosis clinical yeast strain 4) of 8.
